Experimental data as given in ChEMBL document CHEMBL1201862, “PubChem BioAssay data set” (2004).
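All cell lines were grown in 96-well plates and treated with compound for 48 hours. GI50 = concentration required for 50% inhibition of growth.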 The source made the active and inactive calls. Rule as the data show it: active = GI50 up to about 1.1 µM and inactive = higher.

Experiments:
Assay in all cases: DTP human tumour cell line panel, 48 h
[1] = tested on: KM12
[2] = tested on: HCT-116
[3] = tested on: LOX IMVI
[4] = tested on: OVCAR-5
[5] = tested on: SNB-75
[6] = tested on: U-251
[7] = tested on: HOP-62
[8] = tested on: UACC-62
[9] = tested on: NCI-H522
[10] = tested on: NCI-H226
[11] = tested on: DLD-1
[12] = tested on: SW-620
[13] = tested on: SN12C
[14] = tested on: A498
[15] = tested on: MCF7

Measured: GI50

O=C1C=CC2(CCCCCCC2=O)CC1 (stereo not drawn)
inactive: [1] > 100 µM | [2] > 100 µM | [3] 44.9 µM | [4] > 100 µM | [5] 57.9 µM | [6] > 100 µM | [7] > 100 µM | [8] > 100 µM | [9] > 100 µM | [10] 42.6 µM | [11] > 100 µM | [12] > 100 µM | [13] > 100 µM | [14] > 100 µM

N#C/C(=C\c1cc(OCc2ccccc2)c(OCc2ccccc2)cn1)C(N)=O
inactive: [1] > 100 µM | [2] 35.5 µM | [3] 30.5 µM | [4] > 100 µM | [5] 36.7 µM | [6] > 100 µM | [7] > 100 µM | [8] > 100 µM | [9] 19.1 µM | [10] > 100 µM | [11] > 100 µM | [12] > 100 µM | [13] > 100 µM | [14] > 100 µM

CCOC(=O)C(CCC(N)=O)(CCC(=O)OC)C(=O)OCC
inactive: [1] > 100 µM | [2] > 100 µM | [3] > 100 µM | [4] > 100 µM | [5] > 100 µM | [6] > 100 µM | [7] > 100 µM | [8] > 100 µM | [9] > 100 µM | [10] > 100 µM | [11] > 100 µM | [12] > 100 µM | [13] > 100 µM | [14] > 100 µM

Cc1ccc(/N=C2\N=C(N3CC(C)OC(C)C3)c3ccccc32)cc1 (stereo not drawn)
inactive: [1] 22 µM | [2] 20.2 µM | [3] 28.2 µM | [4] 40.6 µM | [5] 27.9 µM | [6] 39.4 µM | [7] 37.9 µM | [8] 29.6 µM | [9] > 10 µM | [10] 29 µM | [11] 41.3 µM | [12] 33.9 µM | [13] 34.5 µM | [14] 26.6 µM

Cc1ccc(C)c(NC(=O)CC/C(=N\NC(=O)c2c(O)ccc3ccccc23)C(C)C(=O)c2ccc(O)cc2)c1 (stereo not drawn)
inactive: [1] 51.2 µM | [2] 57.4 µM | [3] 18.7 µM | [4] 37.5 µM | [5] 20.2 µM | [6] 31.8 µM | [7] 49.5 µM | [8] 17.3 µM | [9] 19.9 µM | [10] 37.1 µM | [11] 52.5 µM | [12] 41.3 µM | [13] 38.6 µM | [14] 60.8 µM

O=C(O)/C=C/C(=O)N1C/C(=C\c2ccccc2)C(=O)/C(=C/c2ccccc2)C1
inactive: [1] 2.55 µM | [2] 1.82 µM | [3] 3.13 µM | [4] 17.9 µM | [5] 9.84 µM | [6] 1.87 µM | [7] 23.4 µM | [8] 2.97 µM | [9] 1.9 µM | [10] 12.4 µM | [11] 3.94 µM | [12] 2.32 µM | [13] 6.81 µM | [14] 20.1 µM | [15] 4.73 µM

COC(=O)/C(=N\NC(N)=S)C(C#N)c1ccccc1 (stereo not drawn)
inactive: [1] > 100 µM | [2] > 100 µM | [3] > 100 µM | [4] > 100 µM | [5] 19 µM | [6] > 100 µM | [7] > 100 µM | [8] > 100 µM | [9] > 100 µM | [10] > 100 µM | [11] > 100 µM | [12] > 100 µM | [13] > 100 µM | [14] > 100 µM

CC(N)Cc1ccc(Cl)cc1 (stereo not drawn)
inactive: [1] > 100 µM | [2] 41 µM | [3] > 100 µM | [4] 58.5 µM | [5] > 100 µM | [6] > 100 µM | [7] > 100 µM | [8] > 100 µM | [9] > 100 µM | [10] > 100 µM | [11] > 100 µM | [12] > 100 µM | [13] > 100 µM | [14] > 100 µM
